Experiments:
[1] = target: Serine/threonine-protein kinase PAK 5 (Homo sapiens) (UniProt Q9P286); conditions: Compound concentration 1000.0 nM
[2] = target: Calcium/calmodulin-dependent protein kinase type 1G (Homo sapiens) (UniProt Q96NX5); conditions: Compound concentration 1000.0 nM
[3] = target: Activin receptor type-2B (Homo sapiens) (UniProt Q13705); conditions: Compound concentration 1000.0 nM
[4] = target: NT-3 growth factor receptor (Homo sapiens) (UniProt Q16288); conditions: Compound concentration 1000.0 nM
[5] = target: Muscarinic acetylcholine receptor M4 (Homo sapiens) (UniProt P08173); conditions: Compound concentration 10.0 uM
[6] = target: Tyrosine-protein kinase Fgr (Homo sapiens) (UniProt P09769); conditions: Compound concentration 1000.0 nM
[7] = target: Receptor tyrosine-protein kinase erbB-3 (Homo sapiens) (UniProt P21860); conditions: Compound concentration 1000.0 nM
[8] = target: Tyrosine-protein kinase HCK (Homo sapiens) (UniProt P08631); conditions: Compound concentration 1000.0 nM
[9] = target: Serine/threonine-protein kinase Nek10 (Homo sapiens) (UniProt Q6ZWH5); conditions: Compound concentration 1000.0 nM
[10] = target: 3-phosphoinositide-dependent protein kinase 1 (Homo sapiens) (UniProt O15530); conditions: Compound concentration 1000.0 nM
[11] = target: Serine/threonine-protein kinase 32A (Homo sapiens) (UniProt Q8WU08); conditions: Compound concentration 1000.0 nM
[12] = system: Tyrosine-protein kinase ABL1 (Homo sapiens), P00519 [Y253F]; conditions: Compound concentration 1000.0 nM
[13] = target: Myosin light chain kinase (Homo sapiens) (UniProt Q32MK0); conditions: Compound concentration 1000.0 nM
[14] = system: Tyrosine-protein kinase ABL1 (Homo sapiens), P00519 [E255K]; conditions: Compound concentration 1000.0 nM
[15] = target: Calcium/calmodulin-dependent protein kinase type II subunit gamma (Homo sapiens) (UniProt Q13555); conditions: Compound concentration 1000.0 nM
[16] = target: Serine/threonine-protein kinase TAO3 (Homo sapiens) (UniProt Q9H2K8); conditions: Compound concentration 1000.0 nM
[17] = target: Interleukin-1 receptor-associated kinase 3 (Homo sapiens) (UniProt Q9Y616); conditions: Compound concentration 1000.0 nM
Sequence of Interleukin-1 receptor-associated kinase 3 (Homo sapiens) (Q9Y616 whole entry): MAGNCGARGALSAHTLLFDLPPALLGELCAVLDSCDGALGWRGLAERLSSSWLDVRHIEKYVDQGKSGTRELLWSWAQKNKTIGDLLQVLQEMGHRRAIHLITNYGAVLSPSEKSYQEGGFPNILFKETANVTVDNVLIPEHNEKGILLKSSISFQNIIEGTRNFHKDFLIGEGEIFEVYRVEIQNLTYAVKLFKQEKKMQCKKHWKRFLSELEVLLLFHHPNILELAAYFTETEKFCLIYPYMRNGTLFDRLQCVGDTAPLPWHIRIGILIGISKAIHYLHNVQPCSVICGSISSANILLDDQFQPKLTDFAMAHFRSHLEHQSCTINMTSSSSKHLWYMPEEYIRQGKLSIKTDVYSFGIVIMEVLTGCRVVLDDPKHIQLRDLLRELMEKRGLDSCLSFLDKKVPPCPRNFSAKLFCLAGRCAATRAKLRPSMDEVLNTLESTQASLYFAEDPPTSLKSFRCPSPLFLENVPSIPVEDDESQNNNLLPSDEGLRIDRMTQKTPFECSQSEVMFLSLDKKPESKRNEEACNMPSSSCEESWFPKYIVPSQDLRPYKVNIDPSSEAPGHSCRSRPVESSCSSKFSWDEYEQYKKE

[18] = target: Dual specificity protein kinase TTK (Homo sapiens) (UniProt P33981); conditions: Compound concentration 1000.0 nM
[19] = target: Serine/threonine-protein kinase STK11 (Homo sapiens) (UniProt Q15831); conditions: Compound concentration 1000.0 nM
[20] = target: D(1A) dopamine receptor (Homo sapiens) (UniProt P21728); conditions: Compound concentration 10.0 uM
[21] = target: Serine/threonine-protein kinase 38-like (Homo sapiens) (UniProt Q9Y2H1); conditions: Compound concentration 1000.0 nM
[22] = target: Activin receptor type-1B (Homo sapiens) (UniProt P36896); conditions: Compound concentration 1000.0 nM
[23] = target: Muscarinic acetylcholine receptor M3 (Homo sapiens) (UniProt P20309); conditions: Compound concentration 10.0 uM
[24] = target: D(1B) dopamine receptor (Homo sapiens) (UniProt P21918); conditions: Compound concentration 10.0 uM
[25] = target: Casein kinase I isoform gamma-2 (Homo sapiens) (UniProt P78368); conditions: Compound concentration 1000.0 nM
Sequence of Casein kinase I isoform gamma-2 (Homo sapiens) (P78368 whole entry, looked up, canonical isoform): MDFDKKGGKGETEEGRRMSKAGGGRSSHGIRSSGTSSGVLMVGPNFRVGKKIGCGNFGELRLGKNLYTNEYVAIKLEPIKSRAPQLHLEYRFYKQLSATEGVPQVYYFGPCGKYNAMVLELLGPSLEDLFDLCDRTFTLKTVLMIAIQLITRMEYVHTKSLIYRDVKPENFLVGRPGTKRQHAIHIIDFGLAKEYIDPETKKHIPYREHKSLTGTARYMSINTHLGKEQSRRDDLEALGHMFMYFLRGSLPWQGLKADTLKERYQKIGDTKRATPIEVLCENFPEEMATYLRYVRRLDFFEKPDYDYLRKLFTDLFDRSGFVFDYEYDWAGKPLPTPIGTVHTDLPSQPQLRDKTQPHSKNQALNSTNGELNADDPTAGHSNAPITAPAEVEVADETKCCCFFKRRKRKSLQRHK

[26] = target: Cyclin-dependent kinase 2 homolog (Plasmodium falciparum (isolate 3D7)) (UniProt P61075); conditions: Compound concentration 1000.0 nM
[27] = target: Mitogen-activated protein kinase 15 (Homo sapiens) (UniProt Q8TD08); conditions: Compound concentration 1000.0 nM
[28] = target: Phosphatidylinositol 3-kinase catalytic subunit type 3 (Homo sapiens) (UniProt Q8NEB9); conditions: Compound concentration 1000.0 nM
[29] = target: Tyrosine-protein kinase Yes (Homo sapiens) (UniProt P07947); conditions: Compound concentration 1000.0 nM
Sequence of Tyrosine-protein kinase Yes (Homo sapiens) (P07947 2-543 limits assumed): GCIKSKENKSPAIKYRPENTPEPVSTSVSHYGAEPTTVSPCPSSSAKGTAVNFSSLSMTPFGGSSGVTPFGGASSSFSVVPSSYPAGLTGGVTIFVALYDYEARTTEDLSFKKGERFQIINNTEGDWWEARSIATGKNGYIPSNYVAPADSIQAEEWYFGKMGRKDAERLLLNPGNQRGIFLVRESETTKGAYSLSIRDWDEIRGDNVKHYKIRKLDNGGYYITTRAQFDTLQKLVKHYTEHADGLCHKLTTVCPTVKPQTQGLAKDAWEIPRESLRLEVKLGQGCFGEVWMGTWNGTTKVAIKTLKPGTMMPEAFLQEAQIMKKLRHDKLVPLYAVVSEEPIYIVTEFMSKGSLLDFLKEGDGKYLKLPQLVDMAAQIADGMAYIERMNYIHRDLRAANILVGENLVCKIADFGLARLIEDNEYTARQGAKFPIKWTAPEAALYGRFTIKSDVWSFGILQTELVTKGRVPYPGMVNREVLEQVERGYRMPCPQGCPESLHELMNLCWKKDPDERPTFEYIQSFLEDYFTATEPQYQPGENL

[30] = target: AP2-associated protein kinase 1 (Homo sapiens) (UniProt Q2M2I8); conditions: Compound concentration 1000.0 nM
[31] = target: Macrophage colony-stimulating factor 1 receptor (Homo sapiens) (UniProt P07333); conditions: Compound concentration 1000.0 nM
[32] = target: Mitogen-activated protein kinase 14 (Homo sapiens) (UniProt Q16539); conditions: Compound concentration 1000.0 nM
[33] = target: Death-associated protein kinase 2 (Homo sapiens) (UniProt Q9UIK4); conditions: Compound concentration 1000.0 nM
[34] = target: Serine/threonine-protein kinase LATS1 (Homo sapiens) (UniProt O95835); conditions: Compound concentration 1000.0 nM
Sequence of Serine/threonine-protein kinase LATS1 (Homo sapiens) (O95835 whole entry, the tested form may be a part): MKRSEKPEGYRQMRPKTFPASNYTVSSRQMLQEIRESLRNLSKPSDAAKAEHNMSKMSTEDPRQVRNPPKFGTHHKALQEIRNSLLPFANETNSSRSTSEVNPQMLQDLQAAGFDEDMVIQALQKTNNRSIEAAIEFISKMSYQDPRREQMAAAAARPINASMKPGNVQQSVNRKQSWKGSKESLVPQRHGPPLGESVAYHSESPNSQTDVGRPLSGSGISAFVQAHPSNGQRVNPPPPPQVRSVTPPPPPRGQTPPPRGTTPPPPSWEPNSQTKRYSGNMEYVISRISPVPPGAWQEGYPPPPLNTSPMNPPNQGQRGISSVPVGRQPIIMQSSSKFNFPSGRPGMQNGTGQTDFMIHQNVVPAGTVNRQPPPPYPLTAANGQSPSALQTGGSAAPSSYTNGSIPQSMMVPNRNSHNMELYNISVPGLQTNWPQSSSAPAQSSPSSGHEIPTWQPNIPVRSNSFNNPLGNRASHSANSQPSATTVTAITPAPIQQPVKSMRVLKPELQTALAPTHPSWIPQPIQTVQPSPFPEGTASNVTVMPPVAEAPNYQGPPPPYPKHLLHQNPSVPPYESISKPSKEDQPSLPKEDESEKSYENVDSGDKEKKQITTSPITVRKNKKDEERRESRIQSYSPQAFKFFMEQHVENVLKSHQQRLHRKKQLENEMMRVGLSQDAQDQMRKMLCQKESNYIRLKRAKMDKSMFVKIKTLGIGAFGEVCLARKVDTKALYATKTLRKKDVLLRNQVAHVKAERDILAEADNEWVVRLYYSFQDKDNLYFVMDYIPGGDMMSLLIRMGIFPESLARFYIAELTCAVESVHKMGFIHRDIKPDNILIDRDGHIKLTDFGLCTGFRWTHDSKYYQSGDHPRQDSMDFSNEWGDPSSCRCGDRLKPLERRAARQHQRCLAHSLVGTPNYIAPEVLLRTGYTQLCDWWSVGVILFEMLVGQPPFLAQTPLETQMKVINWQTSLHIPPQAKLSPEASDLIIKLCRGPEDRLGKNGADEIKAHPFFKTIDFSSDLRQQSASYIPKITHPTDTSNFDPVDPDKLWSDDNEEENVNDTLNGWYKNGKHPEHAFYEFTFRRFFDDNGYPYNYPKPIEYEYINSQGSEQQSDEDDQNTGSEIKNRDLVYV

[35] = target: LIM domain kinase 2 (Homo sapiens) (UniProt P53671); conditions: Compound concentration 1000.0 nM
Sequence of LIM domain kinase 2 (Homo sapiens) (P53671 whole entry, looked up, the tested form may be a part): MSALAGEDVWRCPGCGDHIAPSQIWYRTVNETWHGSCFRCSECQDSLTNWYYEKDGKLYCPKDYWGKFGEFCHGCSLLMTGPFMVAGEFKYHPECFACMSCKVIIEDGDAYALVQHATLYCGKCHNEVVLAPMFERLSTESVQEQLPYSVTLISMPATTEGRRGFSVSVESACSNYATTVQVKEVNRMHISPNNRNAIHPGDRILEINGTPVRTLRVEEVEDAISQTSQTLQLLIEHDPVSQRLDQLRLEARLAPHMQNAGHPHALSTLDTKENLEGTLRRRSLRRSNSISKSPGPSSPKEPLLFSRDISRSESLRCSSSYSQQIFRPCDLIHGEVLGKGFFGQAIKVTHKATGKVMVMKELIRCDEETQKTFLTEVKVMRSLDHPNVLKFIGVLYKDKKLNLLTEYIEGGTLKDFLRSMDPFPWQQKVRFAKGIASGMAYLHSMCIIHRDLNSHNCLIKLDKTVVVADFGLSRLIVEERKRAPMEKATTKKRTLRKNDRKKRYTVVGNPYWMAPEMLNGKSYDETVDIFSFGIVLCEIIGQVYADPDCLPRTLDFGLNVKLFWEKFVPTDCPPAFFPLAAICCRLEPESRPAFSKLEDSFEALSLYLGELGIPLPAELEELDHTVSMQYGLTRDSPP

[36] = target: Mitotic checkpoint serine/threonine-protein kinase BUB1 (Homo sapiens) (UniProt O43683); conditions: Compound concentration 1000.0 nM
[37] = target: Phosphatidylinositol 4-phosphate 5-kinase type-1 alpha (Homo sapiens) (UniProt Q99755); conditions: Compound concentration 1000.0 nM
[38] = target: Mitogen-activated protein kinase kinase kinase 4 (Homo sapiens) (UniProt Q9Y6R4); conditions: Compound concentration 1000.0 nM
[39] = target: Uncharacterized serine/threonine-protein kinase SBK3 (Homo sapiens) (UniProt P0C264); conditions: Compound concentration 1000.0 nM
[40] = target: Platelet-derived growth factor receptor beta (Homo sapiens) (UniProt P09619); conditions: Compound concentration 1000.0 nM
Sequence of Platelet-derived growth factor receptor beta (Homo sapiens) (P09619 whole entry): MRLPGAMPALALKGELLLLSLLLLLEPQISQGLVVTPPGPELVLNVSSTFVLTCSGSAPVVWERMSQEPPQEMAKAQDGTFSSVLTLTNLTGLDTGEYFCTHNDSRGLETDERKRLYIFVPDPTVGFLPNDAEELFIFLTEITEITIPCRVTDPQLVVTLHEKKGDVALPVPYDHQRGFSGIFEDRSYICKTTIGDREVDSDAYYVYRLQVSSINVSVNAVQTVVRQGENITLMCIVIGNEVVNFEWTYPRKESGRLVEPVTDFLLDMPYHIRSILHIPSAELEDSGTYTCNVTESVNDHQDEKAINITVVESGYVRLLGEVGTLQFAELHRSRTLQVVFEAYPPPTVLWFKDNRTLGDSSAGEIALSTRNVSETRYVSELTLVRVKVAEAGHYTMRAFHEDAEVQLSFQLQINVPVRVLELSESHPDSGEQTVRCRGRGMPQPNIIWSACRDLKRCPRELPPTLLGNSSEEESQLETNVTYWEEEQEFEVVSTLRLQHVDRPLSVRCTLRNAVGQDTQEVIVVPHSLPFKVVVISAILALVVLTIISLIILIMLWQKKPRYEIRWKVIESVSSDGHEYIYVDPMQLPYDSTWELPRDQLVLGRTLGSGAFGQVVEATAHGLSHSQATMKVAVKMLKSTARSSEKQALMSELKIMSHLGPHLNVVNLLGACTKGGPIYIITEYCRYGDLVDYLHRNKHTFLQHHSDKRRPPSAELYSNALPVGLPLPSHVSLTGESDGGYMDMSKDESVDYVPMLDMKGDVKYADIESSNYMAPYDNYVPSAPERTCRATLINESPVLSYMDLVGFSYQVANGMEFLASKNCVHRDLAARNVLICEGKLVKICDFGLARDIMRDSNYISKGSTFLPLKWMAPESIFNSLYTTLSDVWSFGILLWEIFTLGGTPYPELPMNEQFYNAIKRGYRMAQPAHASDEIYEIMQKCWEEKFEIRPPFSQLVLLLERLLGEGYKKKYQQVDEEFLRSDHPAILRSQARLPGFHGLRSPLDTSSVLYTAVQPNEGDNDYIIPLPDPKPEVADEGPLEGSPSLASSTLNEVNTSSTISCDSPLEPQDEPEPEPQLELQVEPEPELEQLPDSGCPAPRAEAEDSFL

[41] = target: Mitogen-activated protein kinase kinase kinase 6 (Homo sapiens) (UniProt O95382); conditions: Compound concentration 1000.0 nM
[42] = target: Ephrin type-B receptor 2 (Homo sapiens) (UniProt P29323); conditions: Compound concentration 1000.0 nM
[43] = target: Serine/threonine-protein kinase 25 (Homo sapiens) (UniProt O00506); conditions: Compound concentration 1000.0 nM
Sequence of Serine/threonine-protein kinase 25 (Homo sapiens) (O00506 whole entry, looked up): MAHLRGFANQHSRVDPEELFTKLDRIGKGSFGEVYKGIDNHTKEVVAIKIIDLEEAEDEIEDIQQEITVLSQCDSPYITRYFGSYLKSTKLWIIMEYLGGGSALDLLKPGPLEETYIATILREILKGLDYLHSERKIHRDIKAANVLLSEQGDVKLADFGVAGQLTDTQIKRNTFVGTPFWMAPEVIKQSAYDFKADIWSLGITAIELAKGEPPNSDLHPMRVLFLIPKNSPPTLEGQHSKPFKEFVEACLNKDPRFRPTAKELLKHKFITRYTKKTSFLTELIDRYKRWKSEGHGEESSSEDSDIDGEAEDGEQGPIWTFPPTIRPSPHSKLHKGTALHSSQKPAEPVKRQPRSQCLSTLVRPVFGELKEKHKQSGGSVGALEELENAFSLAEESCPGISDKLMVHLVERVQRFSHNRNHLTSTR

[44] = target: 5-hydroxytryptamine receptor 7 (Homo sapiens) (UniProt P34969); conditions: Compound concentration 10.0 uM
[45] = target: Transient receptor potential cation channel subfamily M member 6 (Homo sapiens) (UniProt Q9BX84); conditions: Compound concentration 1000.0 nM

CC(=O)C1=C(C)N(c2cccc(C(F)(F)F)c2)C(=O)N[C@@H]1c1ccc(C#N)nc1 [BAY-678]
inactive: residual activity [1] 96.2% | residual activity [2] 100% | residual activity [3] 87.5% | residual activity [4] 100% | inhibition [5] -6.72% | residual activity [6] 86.7% | residual activity [7] 100% | residual activity [8] 87.7% | residual activity [9] 96.4% | residual activity [10] 93.4% | residual activity [11] 100% | residual activity [12] 100% | residual activity [13] 100% | residual activity [14] 75% | residual activity [15] 100% | residual activity [16] 73% | residual activity [17] 100% | residual activity [18] 97.9% | residual activity [19] 72.8% | inhibition [20] -8.4% | residual activity [21] 93.6% | residual activity [22] 100% | inhibition [23] 10.4% | inhibition [24] 0.739% | residual activity [25] 94.6% | residual activity [26] 100% | residual activity [27] 100% | residual activity [28] 100% | residual activity [29] 81.1% | residual activity [30] 100% | residual activity [31] 99.4% | residual activity [32] 100% | residual activity [33] 79.2% | residual activity [34] 67.1% | residual activity [35] 91.7% | residual activity [36] 100% | residual activity [37] 100% | residual activity [38] 100% | residual activity [39] 100% | residual activity [40] 94% | residual activity [41] 91.2% | residual activity [42] 100% | residual activity [43] 89.9% | inhibition [44] 3.93% | residual activity [45] 83.8%

— ChEMBL document CHEMBL4507272 (2021)
